For one series, the system named is S. typhimurium ATCC14028. The format is cell-based, Salmonella typhimurium. Conditions: ATCC14028, 5 h. The protocol: (§1) Minimal bactericidal concentrations (MBCs) were measured using the method which has been adopted from National Committee for Clinical Laboratory Standards (NCCLS), with modifications. In short, 50 μL peptide solutions were pipetted into microtiter plates at various concentrations ranging from 1 to 128 μM. Freshly grown bacteria were added to the each well in a density of 0.5–1 × 10^6 CFUmL^−1. Microtiter plated was incubated at 37 °C for 5 h. Fifty microliters of each incubation mixture was further serially diluted (up to 10^−3 of the initial bacterial concentration), transferred on agar plates and incubated overnight. On the following day, the number of colonies was evaluated and the initial CFU/well retrospectively calculated. The minimum bactericidal concentrations (μM) were determined as the lowest concentration of the peptides that prevented more than 99.9% bacteria growth.

For another series, the system named is S. epidermidis ATCC12228. In kind it is cell-based, Staphylococcus epidermidis. Conditions: ATCC12228, 5 h.
For another series, the system named is S. aureus ATCC29213. The format is cell-based, Staphylococcus aureus. Conditions: ATCC 29213, 5 h. The protocol:
as §1

Series [1] deals with human red blood cells (hRBCs). Conditions: red cells of human, 1 h.
Description: (§3) The hemolytic activity of each peptide was evaluated using a modified method, as described previously[21][22]. […] Then, the collected hRBCs were washed three times with PBS (pH 7.2), centrifuged at 1000 × g for 5 min, and resuspended in PBS (final concentration, approximately 1%). Next, 50 μL of the hRBC suspension was placed into a 96-well cell culture plate with 50 μL of test peptide solution in PBS at different concentrations, and the mixture was incubated at 37 °C for 1 h. After incubation, the plate was centrifuged at 1000 × g for 5 min, the supernatant was transferred to a new 96-well cell culture plate, and the release of hemoglobin was measured by monitoring optical density (OD) at 576 nm. Untreated hRBCs suspension was used as a negative control, and the hRBCs treated with 0.1% Triton X-100 were employed as positive controls. Each test was reproduced at least 3 times using 6 replicates. Percent hemolysis was calculated using the following equation:
The next series relates to E. coli UB1005. In kind it is cell-based, Escherichia coli. Conditions: UB1005, 5 h. The protocol:
as §1

For series [2], the system named is E. coli ATCC 25922. The format is cell-based, Escherichia coli. Conditions: ATCC 25922, 5 h. On the procedure: as §1
Series [3] deals with 3 gram-positive strains tested. Conditions: MHC/GM for 3 gram-positive strains; >128 counted as 256 μM. The protocol: as §1, with “In” for “Minimal bactericidal concentrations (MBCs) were measured using the method which has been adopted from National Committee for Clinical Laboratory Standards (NCCLS), with modifications. In”
(§2) The therapeutic index (TI) is calculated by the ration of the minimum hemolytic concentration (MHC) to the geometric mean of the MBC (GM) to evaluate cell selectivity of peptides.

Series [4] concerns 3 gram-negative strains tested. As to the kind of experiment: Geometric mean of MBCs and therapeutic index, gram-negative strains. The format is cell-based. Conditions: MHC/GM for 3 gram-negative strains; >128 counted as 256 μM. The protocol:
as §1, with “In” for “Minimal bactericidal concentrations (MBCs) were measured using the method which has been adopted from National Committee for Clinical Laboratory Standards (NCCLS), with modifications. In”
as §2

The subject of series [5] is all of the 6 strains tested. The series can be described thus: Geometric mean of MBCs and therapeutic index, all strains. In kind it is cell-based. Conditions: MHC/GM for all 6 strains; >128 counted as 256 μM. The protocol: as §1, with “In” for “Minimal bactericidal concentrations (MBCs) were measured using the method which has been adopted from National Committee for Clinical Laboratory Standards (NCCLS), with modifications. In”
as §2

For series [6], the system named is E. coli ATCC 25922. In kind it is cell-based, Escherichia coli. On the procedure:
as §1, with “In short, 50 μL peptide solutions were pipetted into microtiter plates at various concentrations ranging from 1 to 128 μM.” left out, “growth. […] The salt sensitivity of the peptides was measured using a modified method, as described previously. […] The subsequent steps were consistent with the MBCs determination method.” for “growth.”

The subject of series [7] is Methicillin-resistant S. aureus ATCC 43300. Conditions: S. aureus 43300 (methicillin-resistant); lowest concentration preventing more than 99.9% growth; 37 °C, 5 h; representative of three trials. On the procedure: as §1, with “In” for “Minimal bactericidal concentrations (MBCs) were measured using the method which has been adopted from National Committee for Clinical Laboratory Standards (NCCLS), with modifications. In”

The test system of series [8] is human red blood cells (hRBCs). As to the kind of experiment: Hemolytic activity. Conditions: concentration causing 5% hemolysis of human red blood cells; about 1% hRBC in PBS, 37 °C, 1 h, OD 576 nm.
Description: as §3
The subject of series [9] is E. coli ATCC 25922. The format is cell-based, Escherichia coli. Conditions: ATCC 25922, 24 h. The protocol:
The checkerboard titration method is commonly used to evaluate the synergy of different antibacterial combinations. First, 2-fold serial dilutions of the antibiotics and antimicrobial peptides were prepared. Subsequently, 50 μL each of different concentrations of antibiotics and of antimicrobial peptides was mixed and added into 100 μL of bacterial solution (containing approximately 0.5–1 × 10^6 CFU mL^−1) in each well of a 96-well plate. The plates were then incubated at 37 °C for 24 h. The subsequent steps were consistent with the MBCs determination method. The fractional inhibitory concentration (FIC) index (FICI) was calculated as follows: An FICI < 0.5 is considered to indicate synergy; 0.5 < FICI < 1.0 is considered additive; 1.0 < FICI < 4.0 is considered indifferent; and an FICI > 4.0 is considered antagonism.

For a further series, the system named is S. aureus ATCC 29213. In kind it is cell-based, Staphylococcus aureus. Conditions: ATCC 29213, 5 h. The protocol:
as §1, with “In short, 50 μL peptide solutions were pipetted into microtiter plates at various concentrations ranging from 1 to 128 μM.” left out, “growth. […] The salt sensitivity of the peptides was measured using a modified method, as described previously. […] The subsequent steps were consistent with the MBCs determination method.” for “growth.”

Series [10] concerns the molecule itself. The series can be described thus: FRET or BRET; FAM-labeled GG3 (donor) with TAMRA-labeled GG3 (acceptor) and unlabeled GG3, in POPG or POPC/POPG (3:1) vesicles; total peptide and FAM-peptide concentrations kept constant, mole fraction of TAMRA-peptide varied; 10 mM Tris, 150 mM NaCl, 0.1 mM EDTA, pH 7.4; excitation 492 nm; membrane-bound state.

Read-outs that look alike come from different tables or passages of the source. Where no end group is shown, it is not given here.

Description for S. epidermidis ATCC12228: In short, 50 μL peptide solutions were pipetted into microtiter plates at various concentrations ranging from 1 to 128 μM. Freshly grown bacteria were added to the each well in a density of 0.5–1 × 10^6 CFUmL^−1. Microtiter plated was incubated at 37 °C for 5 h. Fifty microliters of each incubation mixture was further serially diluted (up to 10^−3 of the initial bacterial concentration), transferred on agar plates and incubated overnight. On the following day, the number of colonies was evaluated and the initial CFU/well retrospectively calculated. The minimum bactericidal concentrations (μM) were determined as the lowest concentration of the peptides that prevented more than 99.9% bacteria growth. Each test was reproduced at least 3 times using 6 replicates.

As for AKLWLKA-NH2 [AA1], the Minimum bactericidal concentration in the series with S. typhimurium ATCC14028, with S. epidermidis ATCC12228, with S. aureus ATCC29213, with E. coli UB1005 and in the series on E. coli ATCC 25922 [2] was more than 128 µM throughout. The “MHC (minimum hemolytic concentration)” value in [1] was more than 128 µM.
Consider GKLWGLKGKLWGLKGKLWGLK-NH2 [GG3s1], for which the Minimum bactericidal concentration in the series on S. typhimurium ATCC14028 amounted to 16 µM; in the series with S. epidermidis ATCC12228 it was 128 µM; with S. aureus ATCC29213, 128 µM; in the series on E. coli UB1005, 4 µM; in the series with E. coli ATCC 25922 [2], 4 µM. Also, in [3], the “TI (therapeutic index), gram-positive” value stood at 2. The “MHC (minimum hemolytic concentration)” value in [1] is more than 128 µM. For the same molecule, the “TI (therapeutic index), gram-negative” value in [4] was determined as 40.31. The “TI (therapeutic index), all strains” value in series [5] is 8.98.
Regarding GKLWLKG-NH2 [GG1], the “MBC with FeCl3” value against E. coli ATCC 25922 [6] (E. coli ATCC 25922, 4 μM FeCl3) was more than 128 µM. Further, the “MBC with NH4Cl” value against E. coli ATCC 25922 [6] (E. coli ATCC 25922, 6 μM NH4Cl) was more than 128 µM. Moreover, the “MBC with ZnCl2” value in the series on E. coli ATCC 25922 [6] (E. coli ATCC 25922, 8 μM ZnCl2) was more than 128 µM. Also, the “MBC with MgCl2” value in the series with E. coli ATCC 25922 [6] (E. coli ATCC 25922, 1 mM MgCl2) is more than 128 µM. For the same molecule, in the series on E. coli ATCC 25922 [6] (E. coli ATCC 25922, 2 mM CaCl2), the “MBC with CaCl2” value was more than 128 µM. Moreover, in the series with E. coli ATCC 25922 [6] (E. coli ATCC 25922, 4.5 mM KCl), the “MBC with KCl” value was more than 128 µM. Moreover, the “MBC with NaCl” value in the series on E. coli ATCC 25922 [6] (E. coli ATCC 25922, 150 mM NaCl) is more than 128 µM. Further, the “MBC, control” value in the series with E. coli ATCC 25922 [6] (E. coli ATCC 25922, without physiological salts) is more than 128 µM. The Minimum bactericidal concentration in the series with S. typhimurium ATCC14028, with S. epidermidis ATCC12228, with S. aureus ATCC29213, with E. coli UB1005 and in the series with E. coli ATCC 25922 [2] was more than 128 µM throughout. Besides, the “MHC (minimum hemolytic concentration)” value in series [1] is more than 128 µM.
On to GKLWLKGGKLWLKG-NH2 [GG2], for which, in the series on E. coli ATCC 25922 [6] (ATCC 25922, 5 h), the “MBC with CaCl2” value was 16 µM, the “MBC with FeCl3” value came out at 4 µM, the “MBC with KCl” value was 4 µM and the “MBC with MgCl2” value turned out to be 16 µM. Besides, in the series on E. coli ATCC 25922 [6] (ATCC 25922, 5 h), the “MBC with NH4Cl” value stood at 4 µM; the “MBC with NaCl” value is more than 128 µM; the “MBC with ZnCl2” value was 4 µM; the “MBC, control” value came to 4 µM. Moreover, in series [7], the Minimum bactericidal concentration was determined as 64 µM. In addition, in [8], the “MHC (minimum hemolytic concentration)” value was more than 128 µM. The molecule also showed a Minimum bactericidal concentration in the series on S. typhimurium ATCC14028 of 64 µM. Also, in the series with E. coli ATCC 25922 [9], the “FIC index in combination with Ceftazidime” value is given as 2, the “FIC index in combination with Chloramphenicol” value was 1, the “FIC index in combination with Ciprofloxacin” value was 2 and the “FIC index in combination with Streptomycin” value amounted to 1. Further, the “TI (therapeutic index), gram-positive” value in series [3] was determined as 2.52. The same molecule returned a Minimum bactericidal concentration in the series with S. epidermidis ATCC12228 of 128 µM. This molecule yielded a Minimum bactericidal concentration in the series on S. aureus ATCC29213 of 128 µM. In addition, the “TI (therapeutic index), gram-negative” value in [4] is reported as 12.70. In addition, in the series on S. aureus ATCC 29213, the “MBC with CaCl2” value is more than 128 µM, the “MBC with FeCl3” value was determined as 128 µM, the “MBC with KCl” value amounted to 128 µM and the “MBC with MgCl2” value was more than 128 µM. For the same molecule, in the series with S. aureus ATCC 29213, the “MBC with NH4Cl” value worked out at 128 µM; the “MBC with NaCl” value is more than 128 µM; the “MBC with ZnCl2” value turned out to be 128 µM; the “MBC, control” value is 128 µM. The “TI (therapeutic index), all strains” value in [5] worked out at 5.66. Moreover, in the series on E. coli UB1005, the Minimum bactericidal concentration was 32 µM. This molecule also registered a Minimum bactericidal concentration in the series on E. coli ATCC 25922 [2] of 4 µM.
As for GKLWLKGGKLWLKGGKLWLKG-NH2 [GG3], in the series on E. coli ATCC 25922 [6] (ATCC 25922, 5 h), the “MBC with CaCl2” value came to 2 µM, the “MBC with FeCl3” value is 1 µM, the “MBC with KCl” value came to 2 µM and the “MBC with MgCl2” value was determined as 2 µM. In addition, in the series on E. coli ATCC 25922 [6] (ATCC 25922, 5 h), the “MBC with NH4Cl” value came to 2 µM; the “MBC with NaCl” value is 2 µM; the “MBC with ZnCl2” value worked out at 2 µM; the “MBC, control” value is 2 µM. In addition, in series [7], the Minimum bactericidal concentration amounted to 32 µM. Further, the “MHC (minimum hemolytic concentration)” value in [8] is more than 128 µM. The Minimum bactericidal concentration in the series with S. typhimurium ATCC14028 stood at 4 µM. In the series with E. coli ATCC 25922 [9], the “FIC index in combination with Ceftazidime” value is 0.75, the “FIC index in combination with Chloramphenicol” value came out at 1, the “FIC index in combination with Ciprofloxacin” value is reported as 1 and the “FIC index in combination with Streptomycin” value worked out at 0.5. Besides, the “TI (therapeutic index), gram-positive” value in [3] is reported as 10.08. This molecule also registered a Minimum bactericidal concentration with S. epidermidis ATCC12228 of 32 µM. In addition, the Minimum bactericidal concentration with S. aureus ATCC29213 was 16 µM. Also, in [4], the “TI (therapeutic index), gram-negative” value worked out at 101.59. In addition, in the series on S. aureus ATCC 29213, the “MBC with CaCl2” value came out at 16 µM, the “MBC with FeCl3” value was found to be 16 µM, the “MBC with KCl” value came to 8 µM and the “MBC with MgCl2” value worked out at 16 µM. Besides, in the series with S. aureus ATCC 29213, the “MBC with NH4Cl” value worked out at 16 µM; the “MBC with NaCl” value worked out at 16 µM; the “MBC with ZnCl2” value turned out to be 16 µM; the “MBC, control” value came to 16 µM. Besides, in series [5], the “TI (therapeutic index), all strains” value worked out at 32. This molecule also registered a Minimum bactericidal concentration with E. coli UB1005 of 2 µM. In the series with E. coli ATCC 25922 [2], this molecule came in with a Minimum bactericidal concentration of 2 µM.

B1: Gly-rich centrosymmetric peptide GG3 (peptide)
peptide: GKLWLKGGKLWLKGGKLWLKG-NH2
modifications: not fully specified
notes: designed peptide from the template (y+hhh+y)n, three repeats of GKLWLKG; In the FRET experiment, FAM-labeled, TAMRA-labeled and unlabeled GG3 were mixed on lipid vesicles; also called FAM-labeled GG3; TAMRA-labeled GG3; source: synthetic peptide (GL Biochem Corporation, Shanghai)
For B1, the binding result in series [10] is listed as “binds”.

Values taken from paper PMC4632126, “High specific selectivity and Membrane-Active Mechanism of the synthetic centrosymmetric α-helical peptides with Gly-Gly pairs” (Scientific Reports, 2015).
